Each structure is given as a SMILES string.

From patent US9068080B2, “Merocyanine derivatives” (BASF SE, priority 2006, dated 2015) come the findings set out here.

A short description of the data set: UV absorption spectrum (λmax, ε) of the merocyanine UV filters. The class given is physicochemical.

In the case of `CC1(C)CC(NCCC[Si](C)(O[Si](C)(C)C)O[Si](C)(C)C)=CC(=C(C#N)C#N)C1` [MC 07], the “UV λmax” value (in CH3CN/H2O) was 382 nm. Under “in EtOH”, the “UV λmax” value is 381 nm and the “ε (molar extinction at λmax)” value worked out at 52829. As for `CCOC(=O)/C(C#N)=C1\C=C(NCCC[Si](C)(O[Si](C)(C)C)O[Si](C)(C)C)CC(C)(C)C1` [MC 08], for the setting “in EtOH”, the “UV λmax” value was found to be 388 nm and the “ε (molar extinction at λmax)” value was determined as 50383. The like results for `CCOC(=O)/C(C#N)=C1/C=C(NCCC[Si]2(C)O[Si](C)(CCCNC3=C/C(=C(\C#N)C(=O)OCC)CC(C)(C)C3)O[Si](C)(CCCNC3=C/C(=C(\C#N)C(=O)OCC)CC(C)(C)C3)O[Si](C)(CCCNC3=C/C(=C(\C#N)C(=O)OCC)CC(C)(C)C3)O2)CC(C)(C)C1` (stereo not shown) [MC 11] were, in that order, 388 nm and 181817.

For `CCOC(=O)/C(C#N)=C\C=C\N(C)CCC[Si]1(C)O[Si](C)(CCCN(C)/C=C/C=C(/C#N)C(=O)OCC)O[Si](C)(CCCN(C)/C=C/C=C(/C#N)C(=O)OCC)O[Si](C)(CCCN(C)/C=C/C=C(/C#N)C(=O)OCC)O1` (stereo not shown) [MC 12], the “UV λmax” value (in CH3CN/H2O) is on record as 381 nm.

In the case of `CCOC(=O)/C(C#N)=C\C=C\N(C)CCC[Si](C)(O[Si](C)(C)C)O[Si](C)(C)C` [MC 13], the “UV λmax” value runs as follows: (in CH3CN/H2O) 381 nm; (in EtOH) 380 nm. Also, the “ε (molar extinction at λmax)” value (in EtOH) came out at 69116. Take `CN(/C=C/C=C(C#N)C#N)CCC[Si](C)(O[Si](C)(C)C)O[Si](C)(C)C` [MC 14]: under “in CH3CN/H2O”, the “UV λmax” value is reported as 383 nm. As to `CN(/C=C/C=C(C#N)C#N)CCC[Si]1(C)O[Si](C)(CCCN(C)/C=C/C=C(C#N)C#N)O[Si](C)(CCCN(C)/C=C/C=C(C#N)C#N)O[Si](C)(CCCN(C)/C=C/C=C(C#N)C#N)O1` (stereo not shown) [MC 15], for the setting “in CH3CN/H2O”, the “UV λmax” value came to 378 nm.
